According to patent US12291521B2, “Indazole compounds as mGluR4 allosteric potentiators, compositions, and methods of treating neurological dysfunction” (Vanderbilt University, priority 2017, dated 2025):
Like-named read-outs stand apart in the source and are kept apart here.

Columns and labels:
[1] = Brain-plasma Kp (CNS penetration); format: in vivo; conditions: rat, brain and plasma; species not given
[2] = target: T1, human mGlu4 (Homo sapiens, UniProt Q14833); experiment: mGlu4 PAM potentiation in human mGlu4/Gqi5 cells with ~EC20 glutamate (Hamamatsu FDSS); format: cell-based; conditions: ~EC20 concentration of glutamate
T1 construct: expressed in transfected cells; host or cells: CHO (Chinese Hamster Ovary) cells
T1 sequence (Q14833 33-912): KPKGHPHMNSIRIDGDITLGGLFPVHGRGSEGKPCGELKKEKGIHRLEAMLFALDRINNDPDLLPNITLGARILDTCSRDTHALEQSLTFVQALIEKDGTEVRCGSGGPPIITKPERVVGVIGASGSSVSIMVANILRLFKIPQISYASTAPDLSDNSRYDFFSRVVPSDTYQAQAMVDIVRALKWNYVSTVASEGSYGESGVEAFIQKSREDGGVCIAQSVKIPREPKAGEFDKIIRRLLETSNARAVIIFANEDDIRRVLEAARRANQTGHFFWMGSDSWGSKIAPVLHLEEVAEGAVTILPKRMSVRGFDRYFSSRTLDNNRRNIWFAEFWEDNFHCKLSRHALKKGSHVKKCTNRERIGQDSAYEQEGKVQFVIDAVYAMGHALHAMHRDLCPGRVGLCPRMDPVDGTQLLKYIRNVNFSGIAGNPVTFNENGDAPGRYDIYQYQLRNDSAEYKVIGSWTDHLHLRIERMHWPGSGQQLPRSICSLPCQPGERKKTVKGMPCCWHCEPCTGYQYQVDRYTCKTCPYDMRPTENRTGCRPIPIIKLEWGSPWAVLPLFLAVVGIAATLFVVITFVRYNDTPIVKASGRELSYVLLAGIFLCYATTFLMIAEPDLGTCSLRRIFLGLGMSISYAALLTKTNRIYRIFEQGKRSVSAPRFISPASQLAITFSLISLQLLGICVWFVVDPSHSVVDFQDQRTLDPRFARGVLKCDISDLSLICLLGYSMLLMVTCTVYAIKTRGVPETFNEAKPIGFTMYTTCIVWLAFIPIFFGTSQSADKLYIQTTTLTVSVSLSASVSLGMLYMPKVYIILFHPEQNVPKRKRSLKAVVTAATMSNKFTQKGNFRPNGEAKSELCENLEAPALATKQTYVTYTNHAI
Description: The disclosed compounds and compositions can be evaluated for their ability to act as a potentiatior of metabotropic glutamate receptor activity, in particular mGluR4 activity, by any suitable known methodology known in the art. For example, Chinese Hamster Ovary (CHO) cells transfected with human mGluR4 or HEK cells co-transfected with rat mGluR4 and the G-protein regulated Inwardly Rectifying Potassium channel (GIRK) were plated in clear bottom assay plates for assay in a Hamamatsu FDSS Fluorometric Plate Reader. The cells were loaded with either a Ca2+-sensitive fluorescent dye or the thallium responsive dye and the plates were washed and placed into a suitable kinetic plate reader. For human mGluR4 assays, a fluorescence baseline was established for 3-5 seconds, the disclosed compounds were then added to the cells, and the response in cells was measured. Approximately two and a half minutes later, a concentration of mGluR4 orthosteric agonist (e.g. glutamate, L-AP4, or L-SOP) eliciting approximately 20% (EC20) of the maximal agonist response was added to the cells, and the response was measured. Two minutes later, a concentration of mGluR4 agonist (e.g. glutamate, L-AP4, or L-SOP) eliciting 80% (EC80) of the maximal agonist response was added to the cells, and the response was measured. For rat mGluR4/GIRK experiments, a baseline was established for approximately five seconds, disclosed compounds were added, and either an EC20 or EC80 concentration of agonist was added approximately two and one half minutes later.
The above described assay operated in two modes. In the first mode, a range of concentrations of the disclosed compounds are added to cells, followed by a single fixed concentration of agonist. If the compound acts as a potentiatior, an EC50 value for potentiation and a maximum extent of potentiation by the compound at this concentration of agonist is determined by non-linear curve fitting. If the compound acts as an antagonist, an IC50 value is determined by non-linear curve fitting. In the second mode, several fixed concentrations of the disclosed compounds are added to various wells on a plate, followed by a range in concentrations of agonist for each concentration of disclosed compound. The EC50 values for the agonist at each concentration of compound are determined by non-linear curve fitting. A decrease in the EC50 value of the agonist with increasing concentrations of the sample compound (a leftward shift of the agonist concentration-response curve) is an indication of the degree of mGluR4 potentiation at a given concentration of the sample compound. A decrease in the maximal response of the agonist with increasing concentrations of the sample compounds, with or without a rightward shift in agonist potency, is an indication of the degree of antagonism at mGluR4. The second mode also indicates whether the sample compounds also affect the maximum response to mGluR4 to agonists.

Row | Kp [1] | EC50 ([2]; second chart, read-out: hmGluR4 PAM EC50) | EC50 ([2]; read-out: mGlu4 PAM EC50) | SMILES
1 | 3.29 | 0.0992 µM |  | Cn1nc(OCC2CCCOC2)c2ccc(NC(=O)c3ccc(F)cn3)cc21 (stereo not shown)
2 |  |  | 0.413 µM | CC(C)Oc1nn(C)c2cc(Nc3n[nH]c4cccnc34)ccc12 [Compound 1]
3 |  |  | 0.104 µM | Cc1cc(COc2nn(C)c3cc(Nc4n[nH]c5cccnc45)ccc23)on1 [Compound 2]
4 |  |  | 0.231 µM | CC(C)COc1nn(C)c2cc(Nc3n[nH]c4cccnc34)ccc12 [Compound 3]
5 |  |  | 0.0827 µM | Cn1nc(OCc2cccnc2)c2ccc(Nc3n[nH]c4cccnc34)cc21 [Compound 6]
6 |  |  | 0.991 µM | Cc1ccnc(C(=O)Nc2ccc3c(OCC4CCOC4)nn(C)c3c2)c1 (stereo not shown) [Compound 98]
